Assay results published in article PMC6684654 (Nature Communications, 2019).
≈ marks a conversion by molar mass, not a printed value. Where “and” joins values, the source holds several entries; their conditions need not be identical. Identical values can stand only once. Like-named read-outs stand apart in the source and are kept apart here. Bridge positions count the residues as written; N and C are the ends. Ends that are not written are not given here.

B1: Thanatin (peptide)
peptide: GSKKPVPIIYCNRRTGKCQRM
modifications: disulfide 11-18
notes: thanatin, inducible 21-residue insect peptide; source: synthetic peptide (solid-phase, Fmoc), purified by reverse-phase HPLC to over 98%

Tests used:
[1] = tested on: seven NDM-1-producing strains; experiment: Checkerboard assay / FIC, summary; assay type: cell-based, E. coli; K. pneumoniae; conditions: in combination with thanatin
Procedure: (§1) Synergy in vitro was assessed by checkerboard assays. […] Following incubation, the synergistic/additive effect was determined by calculating the FIC indices (FICI) according to the formula: FICI = (MIC of A in combination/MIC of A) + (MIC of B in combination/MIC of B). The synergy or additive was defined according to standard criteria (FICI ≤ 0.5 was defined as synergistic; 0.5 < FICI ≤ 1 was defined as additive; 1 < FICI ≤ 4 was defined as indifference; FICI > 4 was defined as antagonism)[39].

[2] = tested on: NDM-1 K. pneumoniae XJ155020; experiment: MIC, broth microdilution; assay type: cell-based; conditions: Klebsiella pneumoniae, 16 h
Description: (§2) MIC values were identified through microdilution in sterilized 96-well polypropylene microtiter plates according to the broth microdilution guideline of the Clinical and Laboratory Standards Institute[30]. The test medium was Mueller–Hinton broth (MHB), and the strain concentrations were adjusted to 5 × 10^5 CFU/mL.

NDM-1 E. coli XJ141026 [3] = experiment: MIC, broth microdilution; assay type: cell-based; conditions: Escherichia coli; MHB, 5 × 10^5 CFU/mL, 16 h, 37 °C; read-out: MIC
Description: as §2

E. coli ATCC35218 = experiment: MIC, broth microdilution; assay type: cell-based; conditions: Escherichia coli
Description: as §2

E. coli ATCC25922 [4] = experiment: MIC, broth microdilution; assay type: cell-based; conditions: Escherichia coli
Description: as §2

[5] = tested on: NDM-1 K. pneumoniae XJ155018; experiment: MIC, broth microdilution; assay type: cell-based; conditions: Klebsiella pneumoniae, 16 h
Description: as §2

K. pneumoniae ATCC13883 [6] = experiment: MIC, broth microdilution; assay type: cell-based; conditions: Klebsiella pneumoniae
Description: as §2

NDM-1 E. coli XJ141047 [7] = experiment: MIC, broth microdilution; assay type: cell-based; conditions: Escherichia coli; MHB, 5 × 10^5 CFU/mL, 16 h, 37 °C; read-out: MIC
Description: as §2

NDM-1 E. coli XJ141015 [8] = experiment: MIC, broth microdilution; assay type: cell-based; conditions: Escherichia coli; MHB, 5 × 10^5 CFU/mL, 16 h, 37 °C; read-out: MIC
Description: as §2

[9] = tested on: NDM-1 K. pneumoniae XJ155019; experiment: MIC, broth microdilution; assay type: cell-based; conditions: Klebsiella pneumoniae, 16 h
Description: as §2

[10] = tested on: NDM-1 K. pneumoniae XJ155017; experiment: MIC, broth microdilution; assay type: cell-based; conditions: Klebsiella pneumoniae, 16 h
Description: as §2

[11] = tested on: NDM-1 K. pneumoniae XJ155020; experiment: Antibiotic susceptibility (MIC), automated identification system; assay type: cell-based; conditions: Supplementary Table 2; for MIC: Klebsiella pneumoniae
Description: (§3) Clinical isolate strains were identified and screened by the Phoenix 100 automated bacterial identification system to rapidly detect antimicrobial resistance. Total DNA was extracted by the TIANamp Bacteria DNA Kit according to the manufacturer’s protocol. The presence of blaNDM-1 was confirmed using a diagnostic kit for NDM-1 (Puruikang Bio Inc., Shenzhen, China) based on fluorescent quantitative polymerase chain reaction assay. According to the instruction, Ct values of less than 37 were considered positive.

NDM-1 E. coli XJ141026 [12] = experiment: as above; assay type: cell-based; conditions: Supplementary Table 1; for MIC: Escherichia coli
Description: as §3

E. coli ATCC25922 [13] = experiment: as above; assay type: cell-based; conditions: Supplementary Table 1; for MIC: Escherichia coli, ATCC25922
Description: as §3

[14] = tested on: NDM-1 K. pneumoniae XJ155018; experiment: as above; assay type: cell-based; conditions: Supplementary Table 2; for MIC: Klebsiella pneumoniae
Description: as §3

K. pneumoniae ATCC13883 [15] = experiment: as above; assay type: cell-based; conditions: Supplementary Table 2; for MIC: Klebsiella pneumoniae, ATCC13883
Description: as §3

NDM-1 E. coli XJ141047 [16] = experiment: as above; assay type: cell-based; conditions: Supplementary Table 1; for MIC: Escherichia coli
Description: as §3

NDM-1 E. coli XJ141015 [17] = experiment: as above; assay type: cell-based; conditions: Supplementary Table 1; for MIC: Escherichia coli
Description: as §3

[18] = tested on: NDM-1 K. pneumoniae XJ155019; experiment: as above; assay type: cell-based; conditions: Supplementary Table 2; for MIC: Klebsiella pneumoniae
Description: as §3

[19] = tested on: NDM-1 K. pneumoniae XJ155017; experiment: as above; assay type: cell-based; conditions: Supplementary Table 2; for MIC: Klebsiella pneumoniae
Description: as §3

NDM-1 [20] = biological target: T1, NDM-1 (Klebsiella pneumoniae, UniProt C7C422); conditions: NDM-1/Imipenem
T1 sequence (C7C422 20-270, looked up, natural form): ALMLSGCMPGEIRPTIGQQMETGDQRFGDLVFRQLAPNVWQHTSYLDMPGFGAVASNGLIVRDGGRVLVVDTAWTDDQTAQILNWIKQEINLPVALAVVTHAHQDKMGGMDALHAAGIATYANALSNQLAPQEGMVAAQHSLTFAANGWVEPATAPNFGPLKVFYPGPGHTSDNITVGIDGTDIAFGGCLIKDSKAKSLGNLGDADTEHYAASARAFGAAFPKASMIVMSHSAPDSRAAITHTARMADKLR
Procedure: The change in absorbance at 300 nm was monitored for 30 min in 96-well plates at 30 °C. The initial rate of reaction for each inhibitor concentration was calculated from the slope of the initial linear phase of the respective time course. The IC50 value was obtained by plotting the residual enzyme activity on imipenem (%) vs. inhibitor concentration (log10). […] The best fits were obtained with the competitive inhibition model by using the equation V0 = (Vmax × [S]) / (Km × (1 + [I] / Ki) + [S]). […] The kinetics parameters Km/Vmax/Kcat were calculated by fitting the data into the double reciprocal Lineweaver–Burk plots. GraphPad 5.0 was used for data analysis.

NDM-1 [21] = biological target: T1, NDM-1; conditions: reported Km for imipenem; ref 15 (Yuan Q, He L, Ke H, 2012); cited from earlier work
[22] = tested on: NDM-1-producing E. coli XJ141026; experiment: Bactericidal activity of combination treatment; assay type: cell-based; conditions: Tha 0.4 μM, alone or combined, 16 h
Procedure: The kill curves were determined as mentioned above to investigate the bactericidal activity of the combination treatment. […] CFUs were counted.

NDM-1 E. coli XJ141026 [23] = experiment: Checkerboard assay / FIC; assay type: cell-based; conditions: Escherichia coli
Procedure: as §1

[24] = tested on: E. coli XJ141026-infected BALB/c mice; experiment: Thanatin + meropenem in sepsis model: survival; assay type: in vivo, mouse (E. coli infection); conditions: alone or combined, single i.p. dose, n = 14
Procedure: BALB/c mice were infected intraperitoneally with 8 × 10^7 CFU of E. coli XJ141026 in 0.1 mL of MHB. […] The model group was intraperitoneally injected with an equivalent volume of PBS. […] In addition, the survival rates were detected as described above.

[25] = biological target: T2, New Delhi metallo-β-lactamase-1 (NDM-1), without signal peptide, amino-terminal histidine tag (RED-tris-NTA second-generation dye on the His-tag (in the MST assay)); experiment: MST; RED-tris-NTA-labelled apo-NDM-1 (100 nM, mixed 1:1) with serially diluted thanatin; 50 mM HEPES pH 6.8, 0.05% Tween-20; 30 min at room temperature; Monolith NT.115 Pico, medium MST power; conditions: both partners purified
T2 construct: NDM-1 with the signal peptide deleted; also called apo-NDM-1; purified NDM-1; source: E. coli BL21 (DE3), pET30a, purified (Ni-IDA); apo form by dialysis against EDTA; not shown: His6, N-terminal, kept
T2 chain: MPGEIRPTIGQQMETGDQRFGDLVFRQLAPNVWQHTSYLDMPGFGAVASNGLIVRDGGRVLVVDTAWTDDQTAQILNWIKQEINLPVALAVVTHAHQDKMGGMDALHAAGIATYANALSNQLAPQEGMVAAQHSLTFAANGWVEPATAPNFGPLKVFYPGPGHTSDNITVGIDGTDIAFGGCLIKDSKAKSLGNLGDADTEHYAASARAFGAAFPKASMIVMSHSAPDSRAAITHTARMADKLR

[26] = biological target: T2, New Delhi metallo-β-lactamase-1 …; experiment: enzyme inhibition kinetics; 1 nM purified NDM-1 with 10 μM ZnSO4, pre-incubated 20 min at 30 °C with thanatin; imipenem 100-1600 μM; initial rates fitted to the competitive inhibition model; 50 mM HEPES, 0.05% Tween-20; conditions: both partners purified
[27] = biological target: T2, New Delhi metallo-β-lactamase-1 …; experiment: cell-based or functional assay
[28] = MHB, 5 × 10^5 CFU/mL, 37 °C, read-out: MIC

Row | Molecule | FIC indices, all seven strains [1] | effect of combination [1] | MIC [2] | MIC (NDM-1 E. coli XJ141026 [3]) | MIC (NDM-1 E. coli XJ141047 [7]) | MIC (NDM-1 E. coli XJ141015 [8]) | MIC [9] | MIC [11] | susceptibility class (MIC) [11] | MIC (NDM-1 E. coli XJ141026 [12]) | susceptibility class (MIC) (NDM-1 E. coli XJ141026 [12]) | MIC (E. coli ATCC25922 [13]) | susceptibility class (MIC) (E. coli ATCC25922 [13]) | MIC [14] | susceptibility class (MIC) [14] | MIC (K. pneumoniae ATCC13883 [15]) | susceptibility class (MIC) (K. pneumoniae ATCC13883 [15]) | MIC (NDM-1 E. coli XJ141047 [16]) | susceptibility class (MIC) (NDM-1 E. coli XJ141047 [16]) | MIC (NDM-1 E. coli XJ141015 [17]) | other results
1 | C[C@@H](O)[C@H]1C(=O)N2C(C(=O)O)=C(SCCN=CN)C[C@H]12 [Imipenem] | ≤ 1 | synergistic or additive | 128 µg/mL (≈ 428 µM) | 16 µg/mL (≈ 53.4 µM) | 32 µg/mL (≈ 107 µM) | 16 µg/mL (≈ 53.4 µM) | 128 µg/mL (≈ 428 µM) | > 8 µg/mL | R | > 8 µg/mL | R | ≤ 1 µg/mL | S | > 8 µg/mL | R | ≤ 1 µg/mL | S | > 8 µg/mL | R | > 8 µg/mL | MIC (E. coli ATCC35218; ATCC35218, MHB, 5 × 10^5 CFU/mL, 16 h, 37 °C, read-out: MIC): < 0.125 µg/mL; MIC (E. coli ATCC25922 [4]; ATCC25922, MHB, 5 × 10^5 CFU/mL, 16 h, 37 °C, read-out: MIC): < 0.125 µg/mL; MIC [5, 28]: 32 µg/mL (≈ 107 µM); MIC (K. pneumoniae ATCC13883 [6]; ATCC13883, MHB, 5 × 10^5 CFU/mL, 16 h, 37 °C, read-out: MIC): < 0.125 µg/mL; MIC [10, 28]: > 256 µg/mL; susceptibility class (MIC) (NDM-1 E. coli XJ141015 [17]): R; MIC [18]: > 8 µg/mL; susceptibility class (MIC) [18]: R; MIC [19]: > 8 µg/mL; susceptibility class (MIC) [19]: R; Kcat (NDM-1 [20]): 130.40 ± 2.67 s⁻¹; Km (NDM-1 [20]): 104 µM; Vmax (NDM-1 [20]): 0.13 ± 0.03 µM/s; Km (NDM-1 [21]): 94 µM; bacterial count ([22]; Imp 25 μM, replicate 1, listed as Imp): 2.00E+11 CFU/mL and 11.30 Log10(CFU/mL); bacterial count ([22]; Imp 25 μM, replicate 2, listed as Imp): 9.50E+11 CFU/mL and 11.98 Log10(CFU/mL); bacterial count ([22]; Imp 25 μM, replicate 3, listed as Imp): 7.41E+10 CFU/mL and 10.87 Log10(CFU/mL); bacterial count ([22]; Imp 25 μM, replicate 4, listed as Imp): 5.75E+11 CFU/mL and 11.76 Log10(CFU/mL)
2 | C[C@@H](O)[C@H]1C(=O)N2C(C(=O)O)=C(S[C@@H]3CN[C@H](C(=O)N(C)C)C3)[C@H](C)[C@H]12 [Meropenem] | ≤ 1 | synergistic or additive | 128 µg/mL (≈ 334 µM) | 64 µg/mL (≈ 167 µM) | 64 µg/mL (≈ 167 µM) | 64 µg/mL (≈ 167 µM) | 128 µg/mL (≈ 334 µM) | > 8 µg/mL | R | > 8 µg/mL | R | ≤ 1 µg/mL | S | > 8 µg/mL | R | ≤ 1 µg/mL | S | > 8 µg/mL | R | > 8 µg/mL | MIC (E. coli ATCC35218; ATCC35218, 16 h): < 0.125 µg/mL; MIC (E. coli ATCC25922 [4]; ATCC25922, 16 h): < 0.125 µg/mL; MIC [5]: 128 µg/mL (≈ 334 µM); MIC (K. pneumoniae ATCC13883 [6]; ATCC13883, 16 h): < 0.125 µg/mL; MIC [10]: > 256 µg/mL; MIC (NDM-1 E. coli XJ141026 [23]; in the presence of sub-MIC thanatin): 18 µM; MIC (NDM-1 E. coli XJ141026 [23]; meropenem alone): 144 µM; susceptibility class (MIC) (NDM-1 E. coli XJ141015 [17]): R; MIC [18]: > 8 µg/mL; susceptibility class (MIC) [18]: R; MIC [19]: > 8 µg/mL; susceptibility class (MIC) [19]: R; Survival (number of mice) ([24]; Tha 0.1 mg/kg, Mem 10 mg/kg, Day 7): 4; survival rate ([24]; thanatin 0.1 mg/kg, meropenem 10 mg/kg): 30%; bacterial count ([22]; Mem 18 μM, replicate 1, listed as Mem): 11.61 Log10(CFU/mL) and 4.04E+11 CFU/mL; bacterial count ([22]; Mem 18 μM, replicate 2, listed as Mem): 12.11 Log10(CFU/mL) and 1.30E+12 CFU/mL; bacterial count ([22]; Mem 18 μM, replicate 3, listed as Mem): 11.93 Log10(CFU/mL) and 8.52E+11 CFU/mL; bacterial count ([22]; Mem 18 μM, replicate 4, listed as Mem): 10.88 Log10(CFU/mL) and 7.65E+10 CFU/mL
3 | B1 |  |  |  |  |  |  |  |  |  |  |  |  |  |  |  |  |  |  |  |  | Kd [25]: ~710 nM; Ki [26]: 2840 nM; inhibition of imipenem hydrolysis by purified NDM-1 (1 nM enzyme, 100 μM imipenem, 12 concentrations of thanatin), IC50 [27]: 3210 nM
